Results on 56 molecules are retold here after ChEMBL document CHEMBL1201862, “PubChem BioAssay data set” (2004).

“And” between values parts separate entries of the source, which are not always exact repeats. Identical values can stand only once. The source made the active and inactive calls. Some results are limits rather than exact numbers.

One may read the AC50 as the concentration at which the activity in the assay is half-maximal. As usually defined, the EC50 is the concentration giving half of the maximal effect.

In one series the target is Cytochrome P450 2D6 (Homo sapiens, UniProt P10635).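 Also: CYP2D6 member of a cytochrome P450 panel assay.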
Chain of Cytochrome P450 2D6 (P10635 whole entry): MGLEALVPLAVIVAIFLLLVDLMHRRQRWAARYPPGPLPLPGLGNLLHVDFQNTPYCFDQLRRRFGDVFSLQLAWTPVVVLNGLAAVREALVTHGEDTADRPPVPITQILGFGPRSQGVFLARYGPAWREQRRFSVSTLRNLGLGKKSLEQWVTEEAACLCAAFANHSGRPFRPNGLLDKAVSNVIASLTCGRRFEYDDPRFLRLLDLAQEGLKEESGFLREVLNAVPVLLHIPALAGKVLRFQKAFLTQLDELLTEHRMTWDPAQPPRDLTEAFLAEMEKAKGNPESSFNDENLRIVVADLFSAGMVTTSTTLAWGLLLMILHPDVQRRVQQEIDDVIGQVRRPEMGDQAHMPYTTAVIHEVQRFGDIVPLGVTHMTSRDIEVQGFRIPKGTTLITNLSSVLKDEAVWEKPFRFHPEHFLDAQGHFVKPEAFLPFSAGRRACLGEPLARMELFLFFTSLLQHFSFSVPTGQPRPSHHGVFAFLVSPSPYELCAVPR
A further series addresses Cytochrome P450 2C19 (Homo sapiens, UniProt P33261). The series can be described thus: Cytochrome panel assay with activity outcomes. Panel member name: p450-cyp2c19 Compounds with AC50 equal or less than 10 uM are considered active. The class given is functional.
A further series has as its target Cytochrome P450 2C9 (Homo sapiens, UniProt P11712).
A short description of series [1]: inhibitors of intracellular T. cruzi replication, confirmation, NIH3T3 host cells, beta-gal luminescence (AID 2044).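 Also: intracellular parasites grown in NIH/3T3 mouse fibroblasts as host cells; luminescent beta-galactosidase reporter signal from transgenic T. cruzi replicating inside host cells; inhibitors lower the luminescence signal.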 It counts as functional, cell-based.
The nature of series [2]: cytotoxicity toward NIH3T3 fibroblasts, dose response, counter-screen, cell-based, ATP luminescence, mouse fibroblasts (AID 2010).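 Also: cells exposed to compound for about 90 hours before reading.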 The class given is functional. For orientation: Counterscreens check selectivity or assay interference.
The target of another series is T1, Cytochrome P450 1A2 (Homo sapiens, UniProt P05177).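 Also: PubChem cytochrome P450 panel assay, CYP1A2 panel member.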
T1 sequence (P05177 whole entry): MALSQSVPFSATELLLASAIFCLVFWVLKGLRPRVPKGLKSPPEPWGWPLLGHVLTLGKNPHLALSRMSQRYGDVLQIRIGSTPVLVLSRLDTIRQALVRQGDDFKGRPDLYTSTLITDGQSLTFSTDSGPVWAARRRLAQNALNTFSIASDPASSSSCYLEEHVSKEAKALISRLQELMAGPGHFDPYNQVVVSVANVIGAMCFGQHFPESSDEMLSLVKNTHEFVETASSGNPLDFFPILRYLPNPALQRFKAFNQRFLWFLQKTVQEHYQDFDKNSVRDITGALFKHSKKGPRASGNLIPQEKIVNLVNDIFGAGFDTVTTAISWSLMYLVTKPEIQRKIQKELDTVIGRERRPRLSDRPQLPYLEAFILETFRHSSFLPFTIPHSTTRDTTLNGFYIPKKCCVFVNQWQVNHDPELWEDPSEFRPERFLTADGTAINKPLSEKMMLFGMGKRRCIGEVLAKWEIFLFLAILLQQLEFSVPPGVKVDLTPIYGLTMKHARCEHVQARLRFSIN

Chain of Cytochrome P450 2C9 (P11712 whole entry): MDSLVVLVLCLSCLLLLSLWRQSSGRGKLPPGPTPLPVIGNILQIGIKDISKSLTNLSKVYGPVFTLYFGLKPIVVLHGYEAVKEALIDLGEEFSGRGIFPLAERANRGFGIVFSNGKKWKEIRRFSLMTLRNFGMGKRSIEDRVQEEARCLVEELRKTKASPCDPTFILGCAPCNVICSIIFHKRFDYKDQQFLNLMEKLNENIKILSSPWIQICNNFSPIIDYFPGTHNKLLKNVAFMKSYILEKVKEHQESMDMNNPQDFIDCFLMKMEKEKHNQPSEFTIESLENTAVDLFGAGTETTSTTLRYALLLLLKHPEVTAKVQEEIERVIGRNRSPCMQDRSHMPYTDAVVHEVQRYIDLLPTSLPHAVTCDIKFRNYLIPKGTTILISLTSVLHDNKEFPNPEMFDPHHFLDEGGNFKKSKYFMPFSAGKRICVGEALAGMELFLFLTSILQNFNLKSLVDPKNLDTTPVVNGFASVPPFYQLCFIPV
Chain of Cytochrome P450 2C19 (P33261 whole entry): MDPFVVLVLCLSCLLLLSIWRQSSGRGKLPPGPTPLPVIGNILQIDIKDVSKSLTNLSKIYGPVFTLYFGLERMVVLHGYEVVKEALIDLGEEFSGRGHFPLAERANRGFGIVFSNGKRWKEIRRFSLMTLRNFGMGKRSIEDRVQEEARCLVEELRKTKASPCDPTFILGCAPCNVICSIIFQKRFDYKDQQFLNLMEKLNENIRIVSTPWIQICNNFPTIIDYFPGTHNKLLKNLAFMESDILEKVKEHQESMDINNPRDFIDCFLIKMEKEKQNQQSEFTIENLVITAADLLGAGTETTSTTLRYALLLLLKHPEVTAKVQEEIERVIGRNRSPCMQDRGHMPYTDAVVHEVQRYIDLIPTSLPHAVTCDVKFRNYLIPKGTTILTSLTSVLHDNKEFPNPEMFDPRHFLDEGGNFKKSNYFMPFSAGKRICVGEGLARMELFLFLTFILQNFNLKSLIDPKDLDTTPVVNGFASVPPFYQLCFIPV

`Cc1ccc(-c2nnc(-c3ccccc3S(=O)(=O)Cc3ccc(Cl)cc3)o2)cc1`: the AC50 on Cytochrome P450 2D6 was 0.0355 µM (inconclusive); on Cytochrome P450 2C19 (read-out: AC50) it was 7.94 µM (inconclusive); on Cytochrome P450 2C9 it was 1.78 µM (inconclusive).

`COc1ccc(OC)c(CNc2ccc3c(c2)CCC3)c1`: the EC50 in series [1] was 2.08 µM (active); in series [2], > 60 µM (not active). `CC(CC(=O)N1CCN(c2ccc(C(F)(F)F)cn2)CC1)n1ccnc1` (stereo not drawn): the EC50 was 1.51 µM (active) in series [1] and > 60 µM (not active) in series [2]. As to `O=c1[nH]n(-c2cccc(Cl)c2)c2ncccc12`, the AC50 on Cytochrome P450 2C19 (read-out: AC50) was 39.8 µM (inconclusive). `CN1CCN(c2ncc3ncc(=O)n(CCC#N)c3n2)CC1`: the values for the AC50 on Cytochrome P450 1A2 and at Cytochrome P450 2C19 were 31.6 µM (inconclusive) and “inconclusive”, respectively. Consider `Cc1nc(NC(=O)c2ccccc2)sc1-c1csc(Nc2ccc(Cl)cc2Cl)n1`, for which, at Cytochrome P450 2D6, the AC50 was 12.6 µM (inconclusive). For `Cc1ccc(C(=O)Nc2cccc(-c3cnc4ccccc4n3)c2)cc1`, the AC50 is 1.58 µM (inconclusive) on Cytochrome P450 2C19 (read-out: AC50) and 1 µM (inconclusive) on Cytochrome P450 2C9. For `COc1cc(CCN2C(=O)c3cccc4cccc(c34)C2=O)c(S(=O)(=O)N2CCC(C)CC2)cc1OC`, the EC50 in series [1] is 1.51 µM (active); in series [2], > 60 µM (not active). For the molecule `Cc1nnc(SCC(=O)Nc2nccs2)nc1O`, the AC50 was 31.6 µM (inconclusive) at Cytochrome P450 1A2, 10 µM (inconclusive) on Cytochrome P450 2C19 (read-out: AC50) and 10 µM (inconclusive) on Cytochrome P450 2C9.

Consider `CCn1c(=O)c2c(nc3n2CCS3)n(C)c1=O`, for which the AC50 was 10 µM (inconclusive) at Cytochrome P450 2C19 (read-out: AC50) and 0.00891 µM (inconclusive) on Cytochrome P450 2C9. Turning to `CC(C)C(=O)NCCn1ccc2ccccc21`, the AC50 at Cytochrome P450 1A2 was 20 µM (inconclusive). As to `Cc1cnc(CNc2ncnc3ccc(-c4ccc(C(=O)N(C)C)cc4)cc23)cn1`, on Cytochrome P450 1A2, the AC50 was 15.8 µM (inconclusive). For the molecule `CCC(C)(C(=O)NC1CCCC1)N(C(=O)c1ccccn1)c1ccccc1` (stereo not drawn), the AC50 at Cytochrome P450 1A2 was 10 µM (inconclusive); on Cytochrome P450 2C19 (read-out: AC50), 8.91 µM (inconclusive). With `O=C(O)c1ccccc1Nc1ccccc1` [FENAMIC ACID], the AC50 at Cytochrome P450 1A2 and at Cytochrome P450 2C9 was 15.8 µM (inconclusive) each time. As for `COc1ccc2c(c1)s/c(=N/C(=O)CS(=O)(=O)c1ccc(F)cc1)n2C`, the EC50 in series [1] is 0.328 µM (active); in series [2], > 30 µM (not active). Take `COc1ccc(Cc2nccc3cc(OC)c(OC)cc23)cc1OC` [PAPAVERINE]: the AC50 at Cytochrome P450 2D6 is 10 µM (inconclusive) and 25.1 µM (inconclusive); at Cytochrome P450 1A2 it was 10 µM (inconclusive) and 25.1 µM (inconclusive); at Cytochrome P450 2C19 (read-out: AC50), 10 µM (inconclusive) and 3.98 µM (inconclusive).

With `COc1ccc(OC)c2sc(N3CCN(C(=O)c4ccc([N+](=O)[O-])s4)CC3)nc12`, the EC50 in series [1] was 1.8 µM (active); in series [2], > 60 µM (not active). Turning to `O=C(NCCOC12CC3CC(CC(C3)C1)C2)c1cccc(Br)c1`, at Cytochrome P450 1A2, the AC50 was 17.8 µM (inconclusive).

As for `CCNc1ncc2nc(C)c(=O)n(C[C@H]3CCCO3)c2n1`, the half-maximal activity concentration (AC50) on Cytochrome P450 2D6 is 39.8 µM (inconclusive). On to `CN(C)c1ccc(/C=C2/C(=O)N(c3ccc([N+](=O)[O-])cc3)N=C2N2CCOCC2)cc1`, for which the AC50 on Cytochrome P450 2C19 (read-out: AC50) was 0.0224 µM (inconclusive).

Regarding `O=C(N1CCOCC1)N1CCN(c2ccccc2)CC1`, the AC50 at Cytochrome P450 2C9 is 4.47 µM (inconclusive). Turning to `O=C(CN1CCC(c2nc3ccccc3s2)CC1)NCc1ccccc1`, the EC50 in series [1] was 0.237 µM (active); in series [2] it was > 60 µM (not active). Consider `COc1cc(C(=O)Nc2nc(-c3ccc(F)cc3)cs2)ccc1OCC(=O)N1CCOCC1`, for which the EC50 in series [1] is 1.36 µM (active); in series [2], > 60 µM (not active). Consider `Cc1cc(C)n(-c2nc(NC(C)C)nc(NC(C)C)n2)n1`, for which the AC50 at Cytochrome P450 2C19 (read-out: AC50) was 35.5 µM (inconclusive). In the case of `Cc1oc(-c2ccccc2Cl)nc1CN1CCCCC1c1cccnc1` (stereo not drawn), the EC50 in series [1] was 1.2 µM (active); in series [2], > 60 µM (inconclusive). `CCOC(=O)N1CCN(S(=O)(=O)c2ccc3ncc(C(=O)O)c(O)c3c2)CC1`: on Cytochrome P450 2C9, the AC50 is 15.8 µM (inconclusive). On to `Cc1cccc(NC(=O)CSc2nc3ccccc3c3nc(CCc4c(C)n[nH]c4C)nn23)c1`, for which the AC50 at Cytochrome P450 2D6 is 8.91 µM (inconclusive).

With `CC(C)c1cc(C(C)C)c(S(=O)(=O)N2c3ccccc3[C@@]3(Br)C[C@H]4C(=O)N[C@@H](Cc5ccccc5)C(=O)N4[C@@H]23)c(C(C)C)c1`, the values for the EC50 in series [1] and in series [2] were 2.08 µM (active) and > 60 µM (not active), respectively.

Regarding `COC(=O)[C@@]1(Cc2ccc(F)cc2)[C@H]2c3cc(C(=O)N(C)C)n(CCO)c3C[C@H]2CN1C(=O)c1ccccc1`, the AC50 at Cytochrome P450 2D6 and on Cytochrome P450 2C19 (read-out: AC50) was 25.1 µM (inconclusive) throughout.

As for `Cc1cn2c(-c3ccncc3)nnc2s1`, on Cytochrome P450 1A2, the AC50 is 10 µM (inconclusive). Still for that read-out and setting: as for `Cc1nc2cnc(N3CCN(C)CC3)nc2n(CCC#N)c1=O`, the figure is 12.6 µM (inconclusive). On to `COc1ccc2c(c1)c(C(=O)N/N=C/c1cccc(Br)c1)c(C)n2C`, for which the concentration for a half-maximal effect (EC50) was 0.324 µM (active) in series [1] and > 60 µM (not active) in series [2].

For the molecule `COc1cccc(NC(=O)CSc2nnc(CN3CCOCC3)n2C)c1`, the AC50 at Cytochrome P450 2C19 (read-out: AC50) was 28.2 µM (inconclusive). With `CCNc1ncc2nc(-c3ccc(Cl)cc3)c(=O)n(C)c2n1`, on Cytochrome P450 2D6, the AC50 is 25.1 µM (inconclusive). Still for that read-out and setting: as for `Cc1ccc(C)c(C(=O)CN2C(=O)c3ccccc3S2(=O)=O)c1`, the figure is 0.631 µM (inconclusive).

For `CCOC(=O)CNc1nc(C(C)(C)C)nc2c1nnn2Cc1ccccc1Cl`, the EC50 was 3.11 µM (active) in series [1] and > 60 µM (not active) in series [2]. In the case of `Cc1cccc(-c2nsc(SCC(=O)Nc3nccs3)n2)c1`, on Cytochrome P450 2D6, the AC50 is 8.91 µM (inconclusive). `O=C(c1cnccn1)N1CCC2(CCN(Cc3ccncc3)CC2)CC1`: the AC50 at Cytochrome P450 1A2 is 25.1 µM (inconclusive). Turning to `COC(=O)[C@@]1(Cc2ccc(F)cc2)[C@H]2c3cc(C(=O)N4CCCC4)n(CCN4CNCC4=O)c3C[C@H]2CN1C(=O)c1ccccc1`, the AC50 is 39.8 µM (inconclusive) at Cytochrome P450 2D6, 15.8 µM (inconclusive) on Cytochrome P450 1A2 and 39.8 µM (inconclusive) on Cytochrome P450 2C19 (read-out: AC50). Turning to `CCOC(=O)c1cc(C#N)c(N2CCN(C)CC2)nc1-c1ccccc1`, the EC50 in series [1] was 1.3 µM (active); in series [2] it was > 60 µM (not active). On to `CCn1ccc(C(=O)Oc2ccc(Cl)cc2)n1`, for which the values for the AC50 on Cytochrome P450 2D6, at Cytochrome P450 2C19 (read-out: AC50) and at Cytochrome P450 2C9 were 22.4 µM (inconclusive), 11.2 µM (inconclusive) and 8.91 µM (inconclusive), respectively. For `Cc1cccc(CNc2nc(-c3c(C)noc3C)nc3ccccc23)c1`, the AC50 on Cytochrome P450 2C19 (read-out: AC50) is 3.16 µM (inconclusive); at Cytochrome P450 2C9 it was 0.631 µM (inconclusive).

As to `c1cncc(CNc2ncncc2-c2ccc3c(c2)OCO3)c1`, the AC50 at Cytochrome P450 2C9 was 0.794 µM (inconclusive). `CCCCNC(=O)C1CC(=O)N(CCC(C)C)C1` (stereo not drawn): the AC50 at Cytochrome P450 2C19 (read-out: AC50) was 25.1 µM (inconclusive).

In the case of `COC(=O)CNC(=O)CN1C(=O)N(c2ccc(Cl)cc2)C(N(O)C(=O)Nc2ccc(Cl)cc2)C1(C)C` (stereo not drawn), the AC50 on Cytochrome P450 2D6 was 15.8 µM (inconclusive); on Cytochrome P450 1A2, 22.4 µM (inconclusive). As for `CC(=O)NCCC(=O)Nc1nc(-c2ccc3ccccc3c2)cs1`, the figures for the EC50 in series [1] and in series [2] were 2 µM (active) and > 60 µM (not active), respectively. Turning to `CCOc1cc(NC(=O)CC(C)C)c(OCC)cc1N=C(S)Nc1cccc(C)c1`, on Cytochrome P450 2C19 (read-out: AC50), the AC50 was 2.51 µM (inconclusive).

Take `O=c1cnc2cnc(Nc3ccccc3)nc2n1Cc1cccs1`: the half-maximal activity concentration (AC50) on Cytochrome P450 2C9 is 3.16 µM (inconclusive).

As for `CN(C)CCCNc1c2c(nc3ccc(Cl)cc13)CCCC2`, at Cytochrome P450 1A2, the AC50 is 3.16 µM (inconclusive). As for `NC(=O)[C@@H]1CCCN1Cc1ccc2c(c1)OCO2`, the AC50 is 3.98 µM (inconclusive) on Cytochrome P450 2D6, 3.16 µM (inconclusive) on Cytochrome P450 1A2 and 5.01 µM (inconclusive) on Cytochrome P450 2C19 (read-out: AC50). As to `c1ccc2c(c1)ncn2-c1ccc(-c2ccnc(-c3ccncc3)n2)cc1`, the AC50 at Cytochrome P450 2D6 is 1.12 µM (inconclusive).

Consider `CC1(O)CC(=O)N(c2ccccc2)O1` (stereo not drawn), for which the AC50 on Cytochrome P450 1A2 is 22.4 µM (inconclusive); on Cytochrome P450 2C19 (read-out: AC50), 17.8 µM (inconclusive); at Cytochrome P450 2C9, 10 µM (inconclusive). For the molecule `C[N+](C)([O-])CCC=C1c2ccccc2CCc2ccccc21` [AMITRIPTYLINOXIDE], the AC50 at Cytochrome P450 1A2 is 0.794 µM (inconclusive). On to `Cc1ccc(Cl)cc1N=C(S)N(Cc1ccccc1)Cc1cccnc1`, for which the EC50 in series [1] was 0.785 µM (active); in series [2] it was > 60 µM (not active). Turning to `CCCCCCCNC(=O)c1cc(-c2ccncc2)nc2ccccc12`, the EC50 in series [1] is 2.98 µM (active); in series [2], > 60 µM (not active). Turning to `O=S(=O)(c1ccc(F)cc1)n1ccc(-c2cnc(-c3ccccc3)s2)n1`, at Cytochrome P450 2D6, the AC50 was 17.8 µM (inconclusive).
